Source: patent publication US20210053957A1, “HERBICIDAL COMPOUNDS” (SYNGENTA PARTICIPATIONS AG, priority 2018, published 2021)

Legend:
Experiment in all cases: Post-emergence efficacy, glasshouse spray test
Format in all cases: in vivo
[1] = tested on: Amaranthus palmeri (AMAPA); details: Application Rate 500 g/Ha, evaluated after 13 days; for pest or weed control at 500 g/ha: Amaranthus palmeri, post-emergence, 312 h, read-out: Control of weed species after post-emergence application, AMAPA (100=total damage to plant; 0=no damage to plant)
Description: (§1) Seeds of a variety of test species were sown in standard soil in pots. After cultivation for 14 days (post-emergence) under controlled conditions in a glasshouse (at 24/16° C. day/night; 14 hours light; 65% humidity), the plants were sprayed with an aqueous spray solution derived from the dissolution of the technical active ingredient formula (I) in a small amount of acetone and a special solvent and emulsifier mixture referred to as IF50 (11.12% Emulsogen EL360 TM+44.44% N-methyl pyrrolidone+44.44% Dowanol DPM glycolether), to create a 50 g/l solution which was then diluted to required concentration using 0.25% or 1% Empicol ESC70 (Sodium lauryl ether sulphate)+1% ammonium sulphate as diluent. The test plants were then grown in a glasshouse under controlled conditions (at 24/16° C., day/night; 14 hours light; 65% humidity) and watered twice daily. After 13 days the test was evaluated (100=total damage to plant; 0=no damage to plant).
(§2) Ipomoea hederacea (IPOHE), Euphorbia heterophylla (EPHHL), Chenopodium album (CHEAL), Amaranthus palmeri (AMAPA), Lolium perenne (LOLPE), Digitaria sanguinalis (DIGSA), Eleusine indica (ELEIN), Echinochloa crus-galli (ECHCG), Setaia fabei (SETFA)

[2] = tested on: Chenopodium album (CHEAL); details: Application Rate 500 g/Ha, evaluated after 13 days; for pest or weed control at 500 g/ha: Chenopodium album, post-emergence, 312 h, read-out: Control of weed species after post-emergence application, CHEAL (100=total damage to plant; 0=no damage to plant)
Description: as §1, §2

[3] = tested on: Digitaria sanguinalis (DIGSA); details: Application Rate 500 g/Ha, evaluated after 13 days; for pest or weed control at 500 g/ha: Digitaria sanguinalis, post-emergence, 312 h, read-out: Control of weed species after post-emergence application, DIGSA (100=total damage to plant; 0=no damage to plant)
Description: as §1, §2

[4] = tested on: Echinochloa crus-galli (ECHCG); details: Application Rate 500 g/Ha, evaluated after 13 days; for pest or weed control at 500 g/ha: Echinochloa crus-galli, post-emergence, 312 h, read-out: Control of weed species after post-emergence application, ECHCG (100=total damage to plant; 0=no damage to plant)
Description: as §1, §2

Eleusine indica (ELEIN) = details: Application Rate 500 g/Ha, evaluated after 13 days; for pest or weed control at 500 g/ha: Eleusine indica, post-emergence, 312 h, read-out: Control of weed species after post-emergence application, ELEIN (100=total damage to plant; 0=no damage to plant)
Description: as §1, §2

[5] = tested on: Euphorbia heterophylla (EPHHL); details: Application Rate 500 g/Ha, evaluated after 13 days; for pest or weed control at 500 g/ha: Euphorbia heterophylla, post-emergence, 312 h, read-out: Control of weed species after post-emergence application, EPHHL (100=total damage to plant; 0=no damage to plant)
Description: as §1, §2

[6] = tested on: Ipomoea hederacea (IPOHE); details: Application Rate 500 g/Ha, evaluated after 13 days; for pest or weed control at 500 g/ha: Ipomoea hederacea, post-emergence, 312 h, read-out: Control of weed species after post-emergence application, IPOHE (100=total damage to plant; 0=no damage to plant)
Description: as §1, §2

Lolium perenne (LOLPE) = details: Application Rate 500 g/Ha, evaluated after 13 days; for pest or weed control at 500 g/ha: Lolium perenne, post-emergence, 312 h, read-out: Control of weed species after post-emergence application, LOLPE (100=total damage to plant; 0=no damage to plant)
Description: as §1, §2

Setaia fabei (SETFA) = details: Application Rate 500 g/Ha, evaluated after 13 days; for pest or weed control at 500 g/ha: Setaria faberi, post-emergence, 312 h, read-out: Control of weed species after post-emergence application, SETFA (100=total damage to plant; 0=no damage to plant)
Description: as §1, §2

| SMILES | pest or weed control at 500 g/ha [1] [%] | pest or weed control at 500 g/ha [2] [%] | pest or weed control at 500 g/ha [3] [%] | pest or weed control at 500 g/ha [4] [%] | pest or weed control at 500 g/ha (Eleusine indica (ELEIN)) [%] | pest or weed control at 500 g/ha [5] [%] | pest or weed control at 500 g/ha [6] [%] | pest or weed control at 500 g/ha (Lolium perenne (LOLPE)) [%] | pest or weed control at 500 g/ha (Setaia fabei (SETFA)) [%] | Control of weed species after post-emergence application, AMAPA (100=total damage to plant; 0=no damage to plant) [1] | Control of weed species after post-emergence application, CHEAL (100=total damage to plant; 0=no damage to plant) [2] | Control of weed species after post-emergence application, DIGSA (100=total damage to plant; 0=no damage to plant) [3] | Control of weed species after post-emergence application, ECHCG (100=total damage to plant; 0=no damage to plant) [4] | Control of weed species after post-emergence application, ELEIN (100=total damage to plant; 0=no damage to plant) (Eleusine indica (ELEIN)) | Control of weed species after post-emergence application, EPHHL (100=total damage to plant; 0=no damage to plant) [5] | Control of weed species after post-emergence application, IPOHE (100=total damage to plant; 0=no damage to plant) [6] | Control of weed species after post-emergence application, LOLPE (100=total damage to plant; 0=no damage to plant) (Lolium perenne (LOLPE)) | Control of weed species after post-emergence application, SETFA (100=total damage to plant; 0=no damage to plant) (Setaia fabei (SETFA)) |
| --- | --- | --- | --- | --- | --- | --- | --- | --- | --- | --- | --- | --- | --- | --- | --- | --- | --- | --- |
| Cc1nsc(-c2cc[n+](CCS(=O)(=O)[O-])nc2)n1 [Compound A10] | 60 | 80 | 50 | 30 | 60 | 60 | 50 | 60 | 60 |  |  |  |  |  |  |  |  |  |
| Cn1nnc(-c2cc[n+](CCS(=O)(=O)O)nc2)n1 [Compound A11] | 100 | 90 | 90 | 100 | 100 | 100 | 60 | 80 | 100 |  |  |  |  |  |  |  |  |  |
| Cn1nnnc1-c1cc[n+](CCS(=O)(=O)O)nc1 [Compound A12] | 60 | 30 | 60 | 30 | 30 | 20 | 20 | 70 | 40 |  |  |  |  |  |  |  |  |  |
| Cc1csc(-c2cc[n+](CCS(=O)(=O)[O-])nc2)n1 [Compound A13] | 90 | 70 | 30 | 40 | 80 | 90 | 40 | 60 | 60 |  |  |  |  |  |  |  |  |  |
| Cc1nc(-c2cc[n+](CCS(=O)(=O)[O-])nc2)oc1C [Compound A14] | 100 | 40 | 50 | 40 | 70 | 50 | 40 | 40 | 50 |  |  |  |  |  |  |  |  |  |
| Cc1cnc(-c2cc[n+](CCC(=O)O)nc2)o1 [Compound A15, 3-[4-(5-methyloxazol-2-yl)pyridazin-1-ium-1-yl]propanoic acid; 2,2,2-trifluoroacetate] | 100 | 80 | 80 | 80 | 100 | 100 | 30 | 60 | 70 |  |  |  |  |  |  |  |  |  |
| Cn1ncnc1-c1cc[n+](CCS(=O)(=O)[O-])nc1 [Compound A16] | 100 | 100 | 70 | 80 | 80 | 90 | 80 | 90 | 80 |  |  |  |  |  |  |  |  |  |
| Cc1nc(-c2cc[n+](CCS(=O)(=O)[O-])nc2)sc1C [Compound A17] | 30 | 30 | 50 | 40 | 60 | 40 | 30 | 50 | 50 |  |  |  |  |  |  |  |  |  |
| O=S(=O)([O-])CC[n+]1ccc(-c2nc(C(F)(F)F)cs2)cn1 [Compound A18] | 90 | 10 | 30 | 30 | 30 | 50 | 30 | 40 | 40 |  |  |  |  |  |  |  |  |  |
| O=S(=O)([O-])CC[n+]1ccc(-c2ncco2)cn1 [Compound A19] | 40 | 100 | 70 | 80 | 100 | 100 | 70 | 90 | 60 |  |  |  |  |  |  |  |  |  |
| CCOC(=O)CC[n+]1ccc(-c2cocn2)cn1 [Compound A20] | 40 | 20 | 60 | 30 | 50 | 10 | 10 | 10 | 20 |  |  |  |  |  |  |  |  |  |
| CC(C)(C)COS(=O)(=O)CC[n+]1ccc(-c2cocn2)cn1 [Compound A21, 2,2-dimethylpropyl 2-(4-oxazol-4-ylpyridazin-1-ium-1-yl)ethanesulfonate; 2,2,2-trifluoroacetate] | 10 | 40 | 10 | 10 | 10 | 40 | 10 | 0 | 10 |  |  |  |  |  |  |  |  |  |
| O=S(=O)([O-])CC[n+]1ccc(-c2cocn2)cn1 [Compound A22, 2-(4-oxazol-4-ylpyridazin-1-ium-1-yl)ethanesulfonate] | 30 | 20 | 20 | 20 | 20 | 30 | 10 | 10 | 20 |  |  |  |  |  |  |  |  |  |
| CC(C)c1csc(-c2cc[n+](CCS(=O)(=O)O)nc2)n1 [Compound A23] |  |  |  |  |  |  |  |  |  | 50 | 10 | 50 | 30 | 60 | 70 | 30 | 40 | 40 |
| O=S(=O)([O-])CC[n+]1ccc(-c2nc(Cl)cs2)cn1 [Compound A25] | 80 | 70 | 40 | 30 | 40 | 80 | 40 | 20 | 40 |  |  |  |  |  |  |  |  |  |
| Cn1ncnc1-c1cc[n+](CCC(=O)O)nc1 [Compound A27] | 100 | 90 | 90 | 90 | 50 | 90 | 70 | 30 | 90 |  |  |  |  |  |  |  |  |  |
